Test results as given in patent US20250295683A1, “HETEROCYCLIC COMPOUND, PREPARATION METHOD THEREFOR AND APPLICATION THEREOF” (SICHUAN KELUN-BIOTECH BIOPHARMACEUTICAL CO., LTD., priority 2022, published 2025).

Columns and labels:
[1] = molecular target: T1, Plasminogen (Glu-Typ) (Homo sapiens, UniProt P00747); assay: Activation effect of the compounds on plasminogen (Glu-Typ), u-PA / VLK-pNA kinetic assay; type: biochemical; conditions: for Activation multiples (5 min): slope of A405 vs t^2 divided by slope of control group; for Activation potency on plasminogen compared with the positive compound: at the same concentration
T1 construct: Plasminogen (Glu-Typ) (sigma); purchased sigma (plasminogen); Aladdin (u-PA)
T1 sequence (P00747 20-810 limits assumed): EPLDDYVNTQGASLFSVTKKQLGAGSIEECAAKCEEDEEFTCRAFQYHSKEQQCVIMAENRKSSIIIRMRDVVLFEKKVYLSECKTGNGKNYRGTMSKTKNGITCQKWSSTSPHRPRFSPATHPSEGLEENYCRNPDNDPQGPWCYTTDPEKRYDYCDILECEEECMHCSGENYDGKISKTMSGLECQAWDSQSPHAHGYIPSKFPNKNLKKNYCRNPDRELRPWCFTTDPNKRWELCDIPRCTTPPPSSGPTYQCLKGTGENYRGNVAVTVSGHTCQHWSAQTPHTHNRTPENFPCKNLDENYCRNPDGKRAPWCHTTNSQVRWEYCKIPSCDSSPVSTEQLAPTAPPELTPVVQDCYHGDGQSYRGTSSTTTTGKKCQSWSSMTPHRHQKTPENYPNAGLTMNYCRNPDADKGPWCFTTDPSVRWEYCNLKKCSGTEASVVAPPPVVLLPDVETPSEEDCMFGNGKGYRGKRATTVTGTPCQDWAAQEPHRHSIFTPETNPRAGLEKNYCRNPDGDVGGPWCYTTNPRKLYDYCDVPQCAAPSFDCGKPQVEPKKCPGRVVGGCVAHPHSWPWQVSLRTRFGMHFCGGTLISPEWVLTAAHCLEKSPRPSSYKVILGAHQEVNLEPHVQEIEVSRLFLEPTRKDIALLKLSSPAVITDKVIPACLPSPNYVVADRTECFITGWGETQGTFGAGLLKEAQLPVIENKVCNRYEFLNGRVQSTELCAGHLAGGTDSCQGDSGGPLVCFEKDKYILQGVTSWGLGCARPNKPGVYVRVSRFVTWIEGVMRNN
Experimental: (1) Formulation of Compounds The test compounds of the present invention and the positive compound are all set at three concentration points, i.e., 200 μM, 150 μM and 100 μM, respectively; the final concentration in DMSO was 2.5%.
Plasminogen (Glu-Typ) (sigma); urokinase-type plasminogen activator (u-PA) (Aladdin); vLK-pNA (absin); Multifunctional microplate reader (Thermo).
Plasminogen, the urokinase-type Plasminogen activator (u-PA) and VLK-pNA were formulated in a buffer [Tris-HCl (50 mM, pH 7.4)+NaCl (100 mM)+Tween-80 (0.01%)] to obtain mother solutions at concentrations of 100 nM (5×), 100 IU/ml (5×), and 5 mM (5×), respectively. 20 μl of 5× Plasminogen (Glu-Typ), 20 μl of 5× urokinase-type Plasminogen activator (u-PA) and 20 μl of 5×VLK-pNA were added to a 96-well plate. After mixing uniformly, 40 μl of the test compounds or positive compound were added to the 96-well plate, and a control group (no compound) was set up. The mixture was uniformly mixed well. The kinetic detection was performed using a Thermo multifunctional microplate reader, the detection wavelength was 405 nm, and the activation factor was calculated.
The following results were obtained by plotting the absorbance value at 405 nm (A405) versus time squared (t^2), using the slope of the curve for analysis, and calculating the activation multiples by dividing the slope of the compound group by the slope of the control group (see Table 1-1 and Table 1-2).

[2] = test system: whole blood of rat; assay: Fibrinolysis effect shown by thromboelastography (TEG) with u-PA; conditions: for Ma (strength of the blood clot formed): rat whole blood; for Thrombolytic activity compared with the positive compound: according to the Ma values and thromboelastograms
Experimental: Main Instruments and Reagents: thromboelastography TEG (Udibio); urokinase-type plasminogen activator (u-PA) (Aladdin); reagent 1 (the main component is kaolin); reagent 2 (main component is calcium chloride).
• (1) Test group setting: uPA group: urokinase-type plasminogen activator (u-PA) (1000 U/ml); positive compound/compound 2-1/compound 2-2 group: test compound (200 μM)+u-PA (1000 U/ml); blank group: vehicle. • (2) Formulation of compound solution: the compound was formulated using a 0.5 mg/ml trometamol solution to obtain a 4 mM mother solution, adjusted to pH 9, and diluted to a 2 mM 10× mother solution. The final test concentration was 200 μM. u-PA was formulated as a 50,000 U/ml mother solution using normal saline, and diluted to a 10,000 U/ml 10× mother solution. The final test concentration was 1000 U/ml. • (3) Test: 100 μL of u-PA was added to a sample cup (containing reagent 1) containing 800 μL of the whole blood of rat (anticoagulated with sodium citrate), 100 μL of the test compound was added, and the cup was inverted to mix well. 340 μL of the sample from the sample cup was added to the reaction cup containing 20 μL of reagent 2, and the instrument was allowed to run. The results are shown in Table 2-1, Table 2-2, Table 2-3, FIG. 1, FIG. 2 and FIG. 3. The compound concentration as shown in Table 2-1, Table 2-2, FIG. 1 and FIG. 2 was 200 μM; and the compound concentration as shown in Table 2-3 and FIG. 3 was 100 μM.

[3] = stroke resulting from acute occlusion of large vessels; cited from earlier work
[4] = in vivo; cited from earlier work
[5] = Table 2-1, compound 200 μM + u-PA 1000 U/ml
[6] = Table 2-2, compound 200 μM + u-PA 1000 U/ml
[7] = Table 2-3, compound 100 μM + u-PA 1000 U/ml

Molecule	Activation multiples (5 min) ([1]; Table 1-1, compound 100 μM)	Activation multiples (5 min) ([1]; Table 1-1, compound 150 μM)	Activation multiples (5 min) ([1]; Table 1-1, compound 200 μM)	Activation potency on plasminogen compared with the positive compound [1]	Ma (strength of the blood clot formed) [2, 5] [mm]	Thrombolytic activity compared with the positive compound [2]	recanalization rate after intravenous thrombolysis [3] [%]	half-life [4] [min]	Activation multiples (5 min) ([1]; Table 1-2, compound 100 μM)	Activation multiples (5 min) ([1]; Table 1-2, compound 150 μM)	Activation multiples (5 min) ([1]; Table 1-2, compound 200 μM)	Ma (strength of the blood clot formed) [2, 6] [mm]	Ma (strength of the blood clot formed) [2, 7] [mm]
CC(C)=CCC/C(C)=C/CC[C@@]1(C)Oc2c(c(OC(=O)N(C)C)cc3c2CN(CCC[C@@H](C(=O)O)N2Cc4c(cc(OC(=O)N(C)C)c5c4O[C@](C)(CC/C=C(\C)CCC=C(C)C)[C@@H](O)C5)C2=O)C3=O)C[C@@H]1O [Compound 2-1, (S)-2,5-bis((2R,3S)-5-((dimethylcarbamoyl)oxy)-2-((E)-4,8-dimethylnona-3,7-dien-1-yl)-3-hydroxy-2-methyl-7-oxo-3,4,7,9-tetrahydropyrano[2,3-E]isoindol-8(2H)-yl)pentanoic acid]	5.22	15.93	42.97	better activation potency on plasminogen than the positive compounds	4.7	superior thrombolytic activity to the positive compound							
CC(C)=CCC/C(C)=C/CC[C@@]1(C)Oc2c(c(OC(=O)N3CCOCC3)cc3c2CN(CCC[C@@H](C(=O)O)N2Cc4c(cc(OC(=O)N5CCOCC5)c5c4O[C@](C)(CC/C=C(\C)CCC=C(C)C)[C@@H](O)C5)C2=O)C3=O)C[C@@H]1O [Compound 2-2, (S)-2,5-bis((2R,3S)-2-((E)-4,8-dimethylnona-3,7-dien-1-yl)-3-hydroxy-2-methyl-5-((morpholino-4-carbonyl)oxy)-7-oxo-3,4,7,9-tetrahydropyrano[2,3-e]isoindol-8(2H)-yl)pentanoi c acid]	6.66	21.12	42.23	better activation potency on plasminogen than the positive compounds	4.7	superior thrombolytic activity to the positive compound							
rt-PA: Recombinant tissue plasminogen activator							≤ 25	3 to 5					
CC(C)=CCC/C(C)=C/CC[C@@]1(C)Oc2c(c(OC(=O)N3CCS(=O)(=O)CC3)cc3c2CN(CCC[C@@H](C(=O)O)N2Cc4c(cc(OC(=O)N5CCS(=O)(=O)CC5)c5c4O[C@](C)(CC/C=C(\C)CCC=C(C)C)[C@@H](O)C5)C2=O)C3=O)C[C@@H]1O [Compound 2-5, (S)-2,5-bis((2R,3S)-2-((E)-4,8-dimethylnona-3,7-dien-1-yl)-5-((1,1-dioxothiomorpholino-4-carbonyl)oxy)-3-hydroxy-2-methyl-7-oxo-3,4,7,9-tetrahydropyrano[2,3-E]isoindol-8(2H)-yl)pentanoic acid]				better activation potency on plasminogen than the positive compounds		superior thrombolytic activity to the positive compound			4.65	52.96	90.00	1.9	
CC(C)=CCC/C(C)=C/CC[C@@]1(C)Oc2c(c(OC(=O)N3CC[S+]([O-])CC3)cc3c2CN(CCC[C@@H](C(=O)O)N2Cc4c(cc(OC(=O)N5CC[S+]([O-])CC5)c5c4O[C@](C)(CC/C=C(\C)CCC=C(C)C)[C@@H](O)C5)C2=O)C3=O)C[C@@H]1O [Compound 2-6, (S)-2,5-bis((2R,3S)-2-((E)-4,8-dimethylnona-3,7-dien-1-yl)-5-((1-oxothiomorpholino-4-carbonyl)oxy)-3-hydroxy-2-methyl-7-oxo-3,4,7,9-tetrahydropyrano[2,3-E]isoindol-8(2H)-yl)pentanoic acid]						superior thrombolytic activity to the positive compound							8.8
CC(C)=CCC/C(C)=C/CC[C@@]1(C)Oc2c(c(O)cc3c2CN(CCC[C@@H](C(=O)O)N2Cc4c(cc(O)c5c4O[C@](C)(CC/C=C(\C)CCC=C(C)C)[C@@H](O)C5)C2=O)C3=O)C[C@@H]1O [Positive compound, reference compound]	1.71	2.62	8.62		72.9				3.02	4.54	12.49	73.1	76.4
